# Laboratory results reported in patent US20160081974A1, “COMPOSITION FOR PREVENTING OR TREATING EDEMA CONTAINING FLAVONOID COMPOUND” (Research & Business Foundation SUNGKYUNKWAN UNIVERSITY, priority 2014, published 2016).
# What was measured:
# lymphedema-induced mouse [1] = test: Lymphedema size after daily injection into the edema site of lymphedema-induced mice (caliper, thigh cross-sectional area); type: in vivo; settings: measured every day, compared to control group
# Method: (§1) As mice, Outbred Mice ICR originating from Charles River Laboratories (Wilmington, Mass.) were used. 3 μl of 2% methylene blue as a staining dye for staining lymph nodes and lymphatic vessels was injected into the top of a right foot. After the injection, the right foot was massaged for about 3 minutes to allow a flow of the staining dye through lymphatic vessels to stain the lymphatic system. Zoletil50 (0.6 mg/kg) and Rompun (0.4 mg/kg), which are commercially provided by Bayer Korea, were administered as anesthetic drugs at the maximum content of 100 μl by intraperitoneal injection.
# (§2) Specifically, a mouse was anesthetized with the anesthetic drugs (Zoletil50, Rompun), and its chest was shaved to facilitate a surgical operation and suturing, and observation. A small amount (3 μl) of a 2% methylene blue solution was injected into the top of the right foot, and then the injected site was massaged for 3 minutes to allow the staining dye to spread well through the lymphatic vessels. […]
# Each of PBS, hyaluronidase and butein was administered into an edema site of the mouse prepared in Example 1 at 15 mg per kg a day, and the size of edema was measured each day.
# The cross-sectional area of lymphedema was calculated from the width and length of the thigh and recorded, and thus a change in size of lymphedema during observation was found.
# Each of PBS, hyaluronidase and sulfuretin (15 mg/kg/day) was injected into an edema site of the mouse prepared in Example 1, and the size of edema was measured every day.
# FIG. 8 illustrates the inhibition of lymphedema by sulfuretin, and the size measurement was performed on a thigh area present between the knee and the trunk of the lymphedema-induced site of the experimental animal using a caliper. The cross-sectional area of lymphedema was calculated from the width and length of the thigh and recorded, and thus a change in the lymphedema size that occurs in observation was found.
# Each of PBS, hyaluronidase and isoflavone (100 mg/kg/day) was injected into an edema site of the mouse prepared in Example 1, and the size of edema was measured every day. […]
# PPAR-γ mRNA [2] = test: PPAR-γ mRNA in lymphedema tissue by real time PCR; type: in vivo, mouse
# Method: as §1
# Specifically, a mouse was anesthetized with the anesthetic drugs (Zoletil50, Rompun), and its chest was shaved to facilitate a surgical operation and suturing, and observation. […]
# In this example, to investigate a mechanism for inducing reduction in lymphedema, expression of an adipocyte-related marker greatly found in edema was examined. […] An edema tissue was collected, and mRNAs of adipocyte markers such as PPAR-γ and aP2 that are greatly found in edema were quantitatively analyzed by real time PCR, the result of which is shown in FIG. 2 (normal control: control group in which edema was not induced (n=3), edema+PBS: group into which PBS was injected after edema induction (n=4), edema+butein: group into which butein was injected after edema induction (15 mg/kg/day) (n=5)). […]
# aP2 mRNA [3] = test: aP2 mRNA in lymphedema tissue by real time PCR; type: in vivo, mouse
# Method: as §1
# as §2, with “vessels. To minimize inflammation which may be caused when lymph nodes in a groin region were excised and lymphatic vessels in a thigh were blocked, a minimum area of the right groin was incised open.” for “vessels.”
# In this example, to investigate a mechanism for inducing reduction in lymphedema, expression of an adipocyte-related marker greatly found in edema was examined. […] An edema tissue was collected, and mRNAs of adipocyte markers such as PPAR-γ and aP2 that are greatly found in edema were quantitatively analyzed by real time PCR, the result of which is shown in FIG. […]
# In this example, to investigate a mechanism for inducing reduction in lymphedema, expression of an adipocyte-related marker easily found in edema was examined. […] An edema tissue was collected, and mRNAs of adipocyte markers such as PPAR-γ and aP2, which are greatly found in edema, were quantitatively analyzed by real time PCR, and the result is shown in FIG. […]
# lymphedema-induced mouse [4] = test: Lymphedema reduction after subcutaneous injection for 5 days (leg images); type: in vivo; settings: compared to control group
# Method: as §1
# Specifically, a mouse was anesthetized with the anesthetic drugs (Zoletil50, Rompun), and its chest was shaved to facilitate a surgical operation and suturing, and observation. A small amount (3 μl) of a 2% methylene blue solution was injected into the top of the right foot, and then the injected site was massaged for 3 minutes to allow the staining dye to spread well through the lymphatic vessels. To minimize inflammation which may be caused when lymph nodes in a groin region were excised and lymphatic vessels in a thigh were blocked, a minimum area of the right groin was incised open. Afterward, a superficial inguinal node and popliteal node, and a deep inguinal node, which were stained with methylene blue, were sequentially removed, and the stained lymphatic vessels in the right thigh were blocked using a soldering iron. Since 70 to 80% of the total lymphatic vessels were present in a subcutaneous region, the subcutaneous region in a suturing site was seared with the soldering iron to completely block the lymphatic system under the suturing site, and the right thigh was finally closed by suturing. About 3 days later, an increase in edema was confirmed.
# Butein (15 mg/kg/day) was administered into an animal in which lymphedema was induced by lymph excision in Example 1 by subcutaneous injection for 5 days, and the result is shown in FIG. 3. […]
# lipedema-induced mouse = test: Lipedema size after injection into the edema site of lipedema-induced mice (caliper, thigh cross-sectional area); type: in vivo; settings: 15 mg/kg/day injected into edema site, measured every day, versus untreated experimental group
# Method: (§3) Lymph nodes were removed from a mouse leg by a similar method to the method described in Example 1 to induce lipedema in the experimental animal, and an increase in edema was confirmed about 3 days after the removal of the lymph nodes.
# PBS (control) or butein (15 mg/kg/day) was injected into an edema site of the lipedema-induced mouse prepared in Example 5, and the edema size was measured every day.
# A thigh area present between the knee and the trunk of the lipedema-induced site of the experimental animal was measured using a caliper. The cross-sectional area of lipedema was calculated from the width and length of the thigh and recorded, and thus a change in size of lipedema during observation was found.
# PPAR-γ mRNA [5] = test: PPAR-γ mRNA in lipedema tissue; type: in vivo, mouse; settings: butein injected for 14 days
# Method: as §3
# (§4) In this example, to investigate a mechanism for inducing the reduction of lipedema, expression of an adipocyte-related marker that is easily found in lipedema was examined. An edema tissue was isolated after butein was injected into lipedema for 14 days, and mRNAs of adipocyte markers, PPAR-γ and aP2, isolated from total RNA were quantified, and the result is shown in FIG. 7. Referring to FIG. 7, it could be confirmed that butein reduced the expression of PPAR-γ and aP2. Therefore, it can be seen that the inhibition of adipocytes by the butein administration has an influence on lipedema reduction.
# aP2 mRNA [6] = test: aP2 mRNA in lipedema tissue; type: in vivo, mouse; settings: butein injected for 14 days
# Method: as §3, §4
# [7] = 15 mg/kg/day injected into edema site
# [8] = 15 mg/kg/day subcutaneous injection for 5 days
Compound,size of lymphedema (lymphedema-induced mouse [1]; [7]),mRNA expression of PPAR-γ in edema tissue (PPAR-γ mRNA [2]; 15 mg/kg/day for 14 days),mRNA expression of aP2 in edema tissue (aP2 mRNA [3]; 15 mg/kg/day for 14 days),size of lymphedema (lymphedema-induced mouse [4]; [8]),edema size (lipedema) (lipedema-induced mouse),mRNA expression of PPAR-γ in edema tissue (PPAR-γ mRNA [5]),mRNA expression of aP2 in edema tissue (aP2 mRNA [6]),size of lymphedema (lymphedema-induced mouse [1]; 100 mg/kg/day injected into edema site),mRNA expression of PPAR-γ in edema tissue (PPAR-γ mRNA [2]; 100 mg/kg/day for 14 days),mRNA expression of aP2 in edema tissue (aP2 mRNA [3]; 100 mg/kg/day for 14 days),size of lymphedema (lymphedema-induced mouse [4]; 100 mg/kg/day subcutaneous injection for 5 days)
O=C(/C=C/c1ccc(O)c(O)c1)c1ccc(O)cc1O [butein],significantly reduced,inhibits,inhibits,significantly reduced,more rapidly and greatly reduced,reduced,reduced,–,–,–,–
O=c1c(-c2ccccc2)coc2ccccc12 [isoflavone],–,–,–,–,–,–,–,significantly reduced,inhibits,inhibits,significantly reduced
O=C1/C(=C/c2ccc(O)c(O)c2)Oc2cc(O)ccc21 [sulfuretin],significantly reduced,–,inhibits,significantly reduced,–,–,–,–,–,–,–
